Data set [1] deals with heat shock. Nature of the data set: Heat shock by 1 hour exposure in incubator at 44° C, sensitivity to heat. The data set is classed as in vivo, rat. To be noted: for Sensitization to heat: male rats, pretreatment; for Protection against heat, earlier work: males. The text has this:
The present invention centers on the concept of using opioids as a protective agent against heat shock. Earlier work studied how two opioids, deltorphin D and DADLE would affect molecular stress response to heat and survival. […] The current study focused on the use of deltorphin D to protect against heat stroke by administration before, after, or before and after, heat stroke. Heat stroke is defined as a rapid rise in blood pressure followed by a crash in pressure in response to overheating.
(§1) The subjects were male and female Charles River rats. The rats were divided by sex and by treatment groups. There were four treatment groups: control saline treatment, heat shock-saline treatment, heat shock-DADLE treatment, and heat shock-deltorphin-D treatment. The rats underwent a three-day protocol, receiving injections each day and on the final day undergoing heat shock. The final treatment was given on day three of the experiment, 20 minutes before heat shock. Treatment consisted of intravenous tail injections at 1 mg/kg body weight for all groups. Heat shock was initiated by 1 hour exposure in an incubator at 44° C. The rats were sacrificed 2 hours later and alteration of molecular responses monitored by gel electrophoresis of RNA using Northern blots. DNA sequences for the molecular markers HSP70 and ubiquitin were used to probe the blots. The probes were radioactively labeled with p^32 to label the probe. When the probe “finds” its complementary sequence, it binds to it and the intensity of the signal which results is determined using Molecular Analyst software of the signals on X-ray film. The intensity of the black areas on the film is a measure of gene activity altered by treatment with the respective opioids.

Data set [2] has as its system heat stroke. Kind of data set: Heat stroke induced by heating blanket in ketamine-anesthetized male rats. The data set is classed as in vivo, rat. The following applies: for Body temperature at blood pressure crash (onset of heat stroke): blanket 51.5° C. The protocol: Male rats were used in the study. The first rat weighed approximately 500 g and was anesthetized with ketamine and then wrapped in a heating blanket to raise its body temperature and induce heat stroke. The temperature and blood pressure of the anesthetized rat was monitored with a recording colonic temperature probe and a tail blood pressure cuff. When the symptoms of heat stroke were observed, 1.8 ml of 1.0 mg/ml pure deltorphin D was administered in the tail vein. The amount of deltorphin administered was based on the earlier hemorrhagic studies of Dr. Oeltgrn.
The second male rat was catherized with an arterial line two weeks previous to the next experiment to provide a means for more rapidly providing the deltorphin. The second rat weighed approximately 500 g and was anesthetized with ketamine and then wrapped in a heating blanket set at 51.5° C. to raise its body temperature and induce heat stroke. Prior to being wrapped in the heating blanket, a pre-treatment injection of 1.8 ml of 1.0 mg/ml pure deltorphin was provided through the catheter. The temperature and blood pressure of the anesthetized rat was monitored with a recording colonic temperature probe and blood pressure was monitored and recorded off of the arterial line. […] One hour later, another 1.8 ml of 1.0 mg/ml pure deltorphin was administered through the catheter. At that time, the rat was having difficulty moving.
A third male rat weighing approximately 200 g was catherized with an arterial line the day before the test. The third rat was anesthetized with ketamine and then wrapped in a heating blanket set at 51.5° C. to raise its body temperature and induce heat stroke. Prior to being wrapped in the heating blanket, a pre-treatment injection of 0.7 ml of 1.0 mg/ml pure deltorphin was provided through the catheter. The temperature and blood pressure of the anesthetized rat was monitored with a recording colonic temperature probe and blood pressure was monitored and recorded off of the arterial line. […] Fifteen minutes later, another 0.7 ml of 1.0 mg/ml pure deltorphin was administered through the catheter. The rat died approximately 75 minutes after the onset of heat stroke. […] Nonetheless, the third animal lived for 75 minutes. This survival rate is long when compared to the study reported at Chi WT, Kao TY, Lin MT. Neurosci Res. 1996 24:159-163 wherein rats in which heat stroke was induced lived only about 17 minutes after the onset of heat stroke and continuous perfusion of the animals with saline did nothing to extend their survival.

Data set [3] relates to HSP 70 and ubiquitin. Kind of data set: Molecular stress response (HSP 70 and ubiquitin) after heat stress, overall. The data set is classed as in vivo, rat. The following applies: pretreatment before heat shock; drug-unique patterns. The protocol:
(§2) Experiments were undertaken to study the molecular stress response after heat stress with and without opiate pretreatment in rats. Since it is know that both behavior and pain response to opiates are gender-dependent, both male and female rats were used. The animals were treated by exposure to dry heat at a colonic temperature of 44° C. The animals were sacrificed and brain, leg and heart tissue was removed. The molecular stress responses chosen were HSP 70 and ubiquitin. HSP 70 is a chaperone protein which helps repair damaged proteins, and UbB and UbC forms of ubiquitin are induced by cell damage. Messenger RNA was extracted and analyzed using Northern Blot determination of transcript intensity in saline heat shock controls versus pretreatment with DADLE, a non-specific delta opioid agonist, and deltorphin D.
The subjects were male and female Charles River rats. The rats were divided by sex and by treatment groups. […] The rats were sacrificed 2 hours later and alteration of molecular responses monitored by gel electrophoresis of RNA using Northern blots. […] When the probe “finds” its complementary sequence, it binds to it and the intensity of the signal which results is determined using Molecular Analyst software of the signals on X-ray film. […]

Data set [4] in a line: Change in body core temperature with injections. The data set is classed as in vivo, rat. The following applies: for Changes in Body Temperature, Temperature Day 1 / Changes in Body Temperature, Temperature Day 2: individual animals, 1 mg/kg i.v. tail injection, 1 mg/kg; for Effect on body temperature: summary of Table 3. As for the experimental part:
as §1

In data set [5] the test system is UbB. Nature of the data set: Northern blot of UbB mRNA in tissues after heat shock with opioid pretreatment. The data set is classed as in vivo, rat. To be noted: heat shock 1 h 44° C. The protocol:
as §2, §1

For data set [6], the system named is UbC. Kind of data set: Northern blot of UbC mRNA in tissues after heat shock with opioid pretreatment. The data set is classed as in vivo, rat. To be noted: heat shock 1 h 44° C. As for the experimental part:
as §2, §1

Data set [7] in a line: Change in body core temperature with injections. The data set is classed as in vivo, rat. To be noted: for Effect on body temperature, earlier work: males.
Data set [8] has as its system cerebral ischemia. The following applies: ischemia in mammals; cited from earlier work.
Data set [9] has as its system HSP70. Kind of data set: Northern blot of HSP70 mRNA in tissues after heat shock with opioid pretreatment. To be noted: heat shock 1 h 44° C. The data set is classed as in vivo, rat. The protocol:
as §2, §1

Data set [10] relates to hemorrhagic shock. To be noted: cited from earlier work.
Where [11] appears, read: second rat, 1.8 ml of 1.0 mg/ml before heating and one hour after onset, through catheter.
Setting [12] is: Female Brain, 1 mg/kg i.v. tail injections over 3 days, sacrificed 2 hours later.
Setting [13] is: Male rats, individual animals, 1 mg/kg i.v. tail injection, 1 mg/kg.

The values below come from patent publication US20050130893A1, “Use of opioids in prevention of and recovery from a stress-induced crash in blood pressure” (priority 2003, published 2005).

“And” between values parts separate entries of the source, which are not always exact repeats. Identical values can stand only once.

As for “Tyr-D-Ala-Phe-Ala-Asp-Val-Ala-Ser-Thr-Ile-Gly-Asp-Phe-Phe-His-Ser-Ile-NH2 (AFADVASTIGDFFHSI; N-terminal Tyr-D-, C-amide; printed: Ala-Phe-Ala-Asp-Val-Ala-Ser-Thr-Ile-Gly-Asp-Phe-Phe-His-Ser-Ile-) [deltorphin D, linear 17 amino acid opioid peptide synthesized on a commercial peptide synthesizer]”, the Sensitization to heat result in data set [1] is recorded as “not”. Besides, the “Protection against heat, earlier work” value in data set [1] is listed as “protective against heat”. Besides, the “Survival after heat stroke” value in data set [2] (first rat, approx. 500 g, 1.8 ml of 1.0 mg/ml in the tail vein when symptoms of heat stroke were observed) was “survived only a few minutes”; in data set [2] (setting [11]), “alive and healthy more than four weeks after the test”. Besides, the “Body temperature at blood pressure crash (onset of heat stroke)” value was determined as 41 °C in data set [2] (second rat, approx. 500 g, pre-treatment 1.8 ml of 1.0 mg/ml through arterial catheter) and 41 °C in data set [2] (third rat, approx. 200 g, pre-treatment 0.7 ml of 1.0 mg/ml through arterial catheter). Further, the “Ability to drink seven hours after the onset of heat stroke” value in [2] (setting [11]) is given as “able to drink 5 ml of water out of a pipette”. Further, the “Ability to move two hours after the onset of heat stroke” value in [2] (setting [11]) was “able to move some on its own”. For the same compound, the “Survival time after the onset of heat stroke” value in data set [2] (third rat, approx. 200 g, 0.7 ml of 1.0 mg/ml before heating and fifteen minutes after onset, catheter installed the day before) is “approximately 75 minutes”. In addition, the “Survival relative to expected time in the absence of deltorphin administration” value in [2] (third rat, compared with about 17 minutes in Chi et al. 1996) is recorded as “more than four times the expected time”. For the same compound, the “Alteration of the molecular stress response” value in data set [3] is recorded as “significant (p<0.05) alteration of the molecular stress response”. Moreover, the “Changes in Body Temperature, Temperature Day 1” value in data set [4] (Female rats) is −0.7 (2×) and 0.2 and −1.6 and −1.5; in data set [4] (Male rats), −2.6 and −2.2 and −1.2 and −3.1. Also, the “Changes in Body Temperature, Temperature Day 2” value in data set [4] (Female rats) was −1.4 and −1.7 and −1.6 and −1.9 and −2.8; in data set [4] (Male rats) it was −2.9 and −1.4 and −0.7 and −2.2. In addition, in data set [4], the “Effect on body temperature” value was “lowers body temperature significantly”. Also, the “UBB measurement (Northern blot transcript intensity)” value was found to be 2.844 in data set [5] (setting [12]); 2.845 in [5] (Female Heart, 1 mg/kg i.v.); 2.803 in [5] (Female Leg, 1 mg/kg i.v.); 2.259 in [5] (Male Brain, 1 mg/kg i.v.); 0.5613 in data set [5] (Male Heart, 1 mg/kg i.v.); 2.319 in [5] (Male Leg, 1 mg/kg i.v.). Also, the “UBC measurement (Northern blot transcript intensity)” value is 0.7664 in data set [6] (setting [12]); 0.8595 in [6] (Female Heart, 1 mg/kg i.v.); 0.2439 in data set [6] (Female Leg, 1 mg/kg i.v.); 1.694 in data set [6] (Male Brain, 1 mg/kg i.v.); 0.04345 in data set [6] (Male Heart, 1 mg/kg i.v.); 0.1339 in [6] (Male Leg, 1 mg/kg i.v.). For the same compound, the “Effect on body temperature, earlier work” value in data set [7] was “lowered body temperature”. Also, the “Effect on neurological deficit and cerebral infarct volume” value in data set [8] was “decreasing neurological deficit and cerebral infarct volume”. The “HSP measurement (Northern blot transcript intensity)” value is given as 0.02634 in data set [9] (setting [12]); 1.27 in data set [9] (Female Heart, 1 mg/kg i.v.); 0.9001 in [9] (Female Leg, 1 mg/kg i.v.); 1.043 in [9] (Male Brain, 1 mg/kg i.v.); 0.3697 in data set [9] (Male Heart, 1 mg/kg i.v.); 0.6697 in [9] (Male Leg, 1 mg/kg i.v.).
With [D-Ala2-MePhe4-Glyol]enkephalin [DAGO], the “Restoration of mean arterial pressure after hemorrhage” value in data set [10] (bleeding non-lethal, Feuerstein et al. 1985) is on record as “restore mean arterial pressure after hemorrhage”.
For the compound `CC(C)C[C@@H](NC(=O)[C@H](Cc1ccccc1)NC(=O)CNC(=O)[C@@H](C)NC(=O)[C@@H](N)Cc1ccc(O)cc1)C(=O)O` [DADLE, [D-Ala2-D-Leu5]enkephalin acetate (Tyr-D-Ala-Gly-Phe-D-Leu), reference compound], the Sensitization to heat entry in data set [1] was “sensitized male rats to heat”. For the same compound, the “Protection against heat, earlier work” value in data set [1] is listed as “did not show these effects”. The “Alteration of the molecular stress response” value in [3] is recorded as “significant (p<0.05) alteration of the molecular stress response”. The “Changes in Body Temperature, Temperature Day 1” value in data set [4] (Female rats) is −2.4 and 0.45 and −1.85 and −0.85; in data set [7] (setting [13]) it was 2.36 and 1.82. Further, the “Changes in Body Temperature, Temperature Day 2” value in data set [4] (Female rats) was −3.45 and −1.65 and −1.45 and −0.35; in data set [7] (setting [13]), 1.55 and 0.2. In addition, the “Effect on body temperature” value in data set [4] is recorded as “raises body temperature”. Moreover, the “UBB measurement (Northern blot transcript intensity)” value is on record as 1.688 in data set [5] (setting [12]); 3.57 in data set [5] (Female Heart, 1 mg/kg i.v.); 2.76 in data set [5] (Female Leg, 1 mg/kg i.v.); 4.596 in data set [5] (Male Brain, 1 mg/kg i.v.); 0.7754 in data set [5] (Male Heart, 1 mg/kg i.v.); 0.6005 in data set [5] (Male Leg, 1 mg/kg i.v.). The “Effect on fallen mean arterial pressure” value in data set [10] (Summers et al. 2003) is “quickly reverses fallen mean arterial pressure”. In addition, the “Survival of hemorrhagic shock” value in data set [10] (Summers et al. 2003) is recorded as “increase survival of hemorrhagic shock”. For the same compound, the “UBC measurement (Northern blot transcript intensity)” value was 0.7993 in data set [6] (setting [12]); 0.5605 in [6] (Female Heart, 1 mg/kg i.v.); 0.8995 in data set [6] (Female Leg, 1 mg/kg i.v.); 2.356 in [6] (Male Brain, 1 mg/kg i.v.); 0.5837 in data set [6] (Male Heart, 1 mg/kg i.v.); 0.18 in data set [6] (Male Leg, 1 mg/kg i.v.). Further, the “Effect on body temperature, earlier work” value in data set [7] was “did not show these effects”. Further, the “HSP measurement (Northern blot transcript intensity)” value in [9] (setting [12]) turned out to be 1.295; in data set [9] (Female Heart, 1 mg/kg i.v.), 0.8958; in [9] (Female Leg, 1 mg/kg i.v.), 0.884; in data set [9] (Male Brain, 1 mg/kg i.v.), 1.391; in data set [9] (Male Heart, 1 mg/kg i.v.) it was 0.5364; in data set [9] (Male Leg, 1 mg/kg i.v.), 0.3294.
